# Assay: solubility in water of the dried chelate
# Type: physicochemical
# Details: ambient temperature, white powder
# Procedure: In the case described, the dried chelate is in the form of a white powder, with a melting point of about 248° C. and a solubility in water of about 20 g/l at ambient temperature.
substance,measurement,value
(CH3SCH2CH2CHOHCO)2Zn [Example 1],solubility in water,about 20 g/l

# Reference: patent US6461664B1, “Chelated feed additive and method of preparation” (Agristudio S. r. L., priority 1999, dated 2002)
